From ChEMBL document CHEMBL4130368, “Thienopyrimidine derivatives exert their anticancer efficacy via apoptosis induction, oxidative stress and mitotic catastrophe” (Eur J Med Chem, 2017)
Calls of active or inactive are those of the source. The calls are words filed in the database; no cut-off is given here.

What was measured:
LN-229 = test: Antiproliferative activity against human LN229 cells after 72 hrs by MTT assay; type: functional, cell-based; settings: LN-229, 72 h
A2780 [1] = test: Induction of apoptosis in human A2780 cells assessed as viable cells at 1 uM measured after overnight incubation by mitotracker red/alexa fluor-488 Annexin V staining-based flow cytometry (reference value: 78.1%); type: functional; settings: read-out: Activity
2008 [2] = test: Induction of apoptosis in human OV2008 cells assessed as viable cells at 1 uM measured after overnight incubation by mitotracker red/alexa fluor-488 Annexin V staining-based flow cytometry (reference value: 80.5%); type: functional; settings: read-out: Activity
2008 [3] = test: Cell cycle arrest in human OV2008 cells assessed as accumulation at G1 phase at 2 uM measured after overnight incubation by propidium iodide staining-based flow cytometry (reference value: 52.6%); type: functional
A2780 [4] = test: Induction of cellular oxidative stress in human A2780 cells assessed as increase in ROS levels at 0.5 to 4 uM after 48 hrs by DCFDA dye-based fluorescence microscopic method; type: functional, cell-based
HCT-116 [5] = test: Induction of apoptosis in human HCT116 cells assessed as necrotic cells at 1 uM measured after overnight incubation by mitotracker red/alexa fluor-488 Annexin V staining-based flow cytometry (reference value: 2.67%); type: functional
HCT-116 [6] = test: Induction of apoptosis in human HCT116 cells assessed as early apoptotic cells at 1 uM measured after overnight incubation by mitotracker red/alexa fluor-488 Annexin V staining-based flow cytometry (reference value: 8.36%); type: functional
2008 [7] = test: Induction of apoptosis in human OV2008 cells assessed as viable cells at 2 uM measured after overnight incubation by mitotracker red/alexa fluor-488 Annexin V staining-based flow cytometry (reference value: 80.5%); type: functional; settings: read-out: Activity
2008 [8] = test: Cell cycle arrest in human OV2008 cells assessed as accumulation at S phase at 2 uM measured after overnight incubation by propidium iodide staining-based flow cytometry (reference value: 10.8%); type: functional

COc1ccc(-c2nc(O)c3c4c(sc3n2)CCCC4)cc1
IC50 (LN-229): 500 nM
viability at 1 µM (A2780 [1]): 73.8%
viability at 1 µM 2008 [2]: 75.1%
Activity 2008 [3]: 13.6%
Activity (A2780 [4]): Active
Activity (HCT-116 [5]): 1.48%
Activity (HCT-116 [6]): 11.6%
viability at 2 µM 2008 [7]: 73.9%
Activity 2008 [8]: 31.8%
